Results on 19 compounds are retold here after patent publication US12269793B2, “Affinity illudofulvene conjugates” (AF Chemicals, LLC, priority 2019, dated 2025).

Like-named read-outs stand apart in the source and are kept apart here. Where a SMILES comes first, the peptide text is derived from it. [ ]: non-standard residue; d: D form. The star is where a group is joined. X4 = CC1=C(C*)C2=C(C)C3(CC3)[C@@](C)(O)C(=O)C2=C1

Assay in all cases: cells
Test [1] relates to 8392B Nontarget Cell Line (hematopoietic). The note with it: 48 h, read-out: Mean IC50 value.
Test [2] shares this test system. The note with it: 2 h.
Test [3] deals with MV522 Target Cell Line (lung-derived adenocarcinoma). The note with it: MV522, 2 h, read-out: Mean IC50 value.
For test [4] the test system is unchanged. To be noted: MV522, 48 h, read-out: Mean IC50 value.
[5] abbreviates: read-out: Mean IC50 value, 8392B Nontarget Cell Line, 2 hr exposure, ± SD, N = 3 unless otherwise indicated.

`CC1=C(CCCO)C2=C(C)C3(CC3)[C@@](C)(O)C(=O)C2=C1` [Analog 009]: the IC50 in test [1] was 43.2 ± 2.3 µM; in test [2] (setting [5]), 47.1 ± 11 µM.
The like results for `CC1=C(CCC=O)C2=C(C)C3(CC3)[C@@](C)(O)C(=O)C2=C1` [Analog 010] were, in that order, 14.5 ± 1.7 µM and 29.4 ± 1.6 µM.
Consider `CC1=C(C=O)C2=C(C)C3(CC3)[C@@](C)(O)C(=O)C2=C1` [Analog 011], for which the IC50 is 4.9 ± 0.9 µM in test [3], 40.4 ± 6.7 µM in test [1] and over 100 µM in test [2] (setting [5]).
The like results for `CCOCC1=C(C)C=C2C(=O)[C@](C)(O)C3(CC3)C(C)=C21` [Analog 016] were, in that order, 0.49 ± 0.13 µM, 0.87 ± 0.06 µM and over 100 µM.
Turning to `CC1=C(COCC(O)CO)C2=C(C)C3(CC3)[C@@](C)(O)C(=O)C2=C1` (stereo partly drawn) [Analog 019], the IC50 in test [3] is 0.47 ± 0.06 µM; in test [4] it was 0.66 ± 0.08 µM; in test [2] (setting [5]), over 75 µM.
Regarding `CC1=C(CSc2ccc(O)cc2)C2=C(C)C3(CC3)[C@@](C)(O)C(=O)C2=C1` [Analog 023], the IC50 in test [3] was 2.9 ± 1.14 µM; in test [4], 2.75 ± 0.5 µM; in test [2] (setting [5]), over 138 µM.
Turning to `CCOC(CCC1=C(C)C=C2C(=O)[C@](C)(O)C3(CC3)C(C)=C21)OCC` [Analog 040], the IC50 in test [1] is 5.2 ± 0.47 µM.
For `CC(=O)N[C@@H](CSCC1=C(C)C=C2C(=O)[C@](C)(O)C3(CC3)C(C)=C21)C(=O)N[C@@H](CC(C)C)C(=O)N[C@@H](CC(C)C)C(=O)N[C@@H](C=O)Cc1ccccc1` [Analog 085] (Ac-C(X4)LL[dF]-aldehyde), the IC50 in test [3] and in test [4] was over 40 µM each time.
For the compound `CC(=O)N[C@@H](CSCC1=C(C)C=C2C(=O)[C@](C)(O)C3(CC3)C(C)=C21)C(=O)N[C@@H](CC(C)C)C(=O)N[C@H](CC(C)C)C(=O)N[C@H](C=O)CC(C)C` [Analog 087] (Ac-C(X4)L[dL]L-aldehyde), the concentration for half-maximal inhibition (IC50) was over 40 µM in test [3], 24.7 ± 3.9 µM in test [4] and over 40 µM in test [2] (setting [5]).
Turning to `CC1=C(CSC[C@H](NC(=O)CC[C@@H](N)C(=O)O)C(=O)NCC(=O)O)C2=C(C)C3(CC3)[C@@](C)(O)C(=O)C2=C1` [Analog 089], the IC50 in test [3] was 19.3 ± 5.7 µM; in test [4], 15.5 ± 2.8 µM; in test [2] (setting [5]), over 60 µM.
With `CC(=O)OCCCC1=C(C)C=C2C(=O)[C@](C)(O)C3(CC3)C(C)=C21` [Analog 094], the IC50 in test [3] came to 0.8 ± 0.1 µM; in test [1] it was 0.11 ± 0.01 µM; in test [2] (setting [5]), 9 ± 1.7 µM.
On to `CC(=O)OCC1=C(CO)C=C2C(=O)[C@](C)(OC(C)=O)C3(CC3)C(C)=C21` [Analog 103], for which the IC50 in test [3] was 31.8 ± 4.9 µM; in test [4] it was 5.9 ± 0.4 µM; in test [2] (setting [5]), 12.1 ± 2 µM.
With `C/C(C=O)=C1\[C@@H](O)C[C@]1(C)[C@H]1CC(C)(C)C[C@@H]1O` [Analog 105], the IC50 in test [3] was 7.3 ± 1.2 µM; in test [4] it was 2.1 ± 0.4 µM; in test [2] (read-out: Mean IC50 value), over 100 µM.
Regarding `CC1=C(CCC(=O)OC2CCC3(C)C(CCC4C3CC[C@]3(C)C(=O)CCC43)C2)C2=C(C)C3(CC3)[C@@](C)(O)C(=O)C2=C1` (stereo partly drawn) [Analog 112], the results for the IC50 in test [1] and in test [2] (setting [5]) were 5.2 ± 0.3 µM and 14.9 ± 0.1 µM, respectively.
As to `CC1=C(CCC=NO)C2=C(C)C3(CC3)[C@@](C)(O)C(=O)C2=C1` [Analog 115], the IC50 in test [1] stood at 0.63 ± 0.06 µM.
Same read-out and setting: under `CC1=C2C(=C[C@@](C)(COC(=O)CCCC(=O)O)C2OC(=O)CCCC(=O)O)C(=O)[C@](C)(O)C12CC2` (stereo partly drawn) [Analog 117] stands 0.01 ± 0.002 µM.
Regarding `CC1=C(CCC(O)CO)C2=C(C)C3(CC3)[C@@](C)(O)C(=O)C2=C1` (stereo partly drawn) [Analog 119], the results for the IC50 in test [1] and in test [2] (setting [5]) were over 10 µM and over 33 µM, respectively.
Take `CC(=O)ON=CCCC1=C(C)C=C2C(=O)[C@](C)(O)C3(CC3)C(C)=C21` [Analog 124]: the IC50 is 0.87 ± 0.35 µM in test [4] and over 30 µM in test [2] (setting [5]).
As for `CC1=C(CCC=NNc2ccc([N+](=O)[O-])cc2[N+](=O)[O-])C2=C(C)C3(CC3)[C@@](C)(O)C(=O)C2=C1` [Analog 125], the IC50 turned out to be 3.7 ± 0.6 µM in test [3], 0.6 ± 0.1 µM in test [1] and 15.5 ± 1.4 µM in test [2] (setting [5]).
